Test results reported in patent publication US20250375457A1, “TOPICAL PHARMACEUTICAL COMPOSITIONS AND USES THEREOF” (Shenzhen Pharmacin Co., Ltd., priority 2022, published 2025).
Read-outs that look alike come from different tables or passages of the source.

Assays:
British guinea pigs = format: in vivo; conditions: single skin application 0.2 mL/site, irradiation 10±1 J/cm^2, observed to 72 hours
Description: Phototoxicity of midostaurin cream was tested using British guinea pigs as a model. Male guinea pigs were randomly divided into groups and given a single skin application of physiological saline (negative control), 8-MOP (positive control), 1.0% midostaurin cream, and midostaurin cream blank matrix. The dose given is 0.2 mL/site and the administration site was fixed after the treatment was applied. After 0.5 hours, the administration site was irradiated by the sunlight simulator of Dr. Hönle AG (SOL500) to reach the specified irradiation amount of 10±1 J/cm^2. The irradiance was measured with a UV radiometer equipped with type UVA FO from Dr. Hönle AG. The first day of dosing is designated as day 1 of the trial (Day 1). After the irradiation, the skin irritation of the administration site was observed and scored at 1+0.5 hours, 24 hours, 48 hours and 72 hours, respectively.

[1] = cited from earlier work
[2] = Excipient compatibility study (impurities by HPLC); format: physicochemical; conditions: 1:200 (w/w), 60° C. for 10 days
Description: Midostaurin was mixed with many excipients used in topical formulations at 1:200 (w/w) and was placed at 60° C. for 10 days before testing.

[3] = Equilibrium solubility of midostaurin in different solvents (HPLC); format: physicochemical; conditions: thermodynamic from solid, 25° C., 24-72 hours
Description: Many different solvents were evaluated for their compatibility with midostaurin. […] Solubility was measured by HPLC.

[4] = Solubility of midostaurin in solubilizer-water mixture systems; format: physicochemical; conditions: solubilizer-water mixtures, aqueous with cosolvent or surfactant or cyclodextrin, thermodynamic from solid, Transcutol, Labrasol, Tween 80, Cremphor EL, Kolliphor HS15 at 10%, 20%, 30% v/v in water, 25° C.
Description: The solubility of midostaurin in a system with water and a solubilizer combined at a certain ratio was also evaluated. The method involves adding excess amorphous midostaurin powders into various concentrations of solubilizer and water systems and mixed for 24 hours at 25° C. with 600 rpm to ensure equilibrium was achieved. Solubilizers selected for this study include Transcutol, Labrasol, Tween 80, Cremphor EL, and Kolliphor HS15. Each solubilizer is mixed with water at 10%, 20%, and 30% v/v, respectively, to form a system where amorphous midostaurin power was dissolved.

Row | Structure (SMILES) | phototoxicity (edema and erythema at administration site after UV irradiation) (British guinea pigs) | log P [1] | Impurity results (%) RRT 0.91 [2] | Impurity results (%) RRT 0.93 [2] | Impurity results (%) RRT 0.97 [2] | Impurity results (%) RRT 1.00 (midostaurin assay content) [2] | Impurity results (%) RRT 1.10 [2] | solubility ([3]; oil or lipid, corn oil, read-out: solubility in corn oil) | solubility ([3]; oil or lipid, soybean oil, read-out: solubility in soybean oil) | solubility ([3]; organic solvent or mixture, Labrasol, read-out: solubility in Labrasol) | solubility ([3]; organic solvent or mixture, Tween 80, read-out: solubility in Tween 80) | solubility ([3]; organic solvent or mixture, ethanol, read-out: solubility in ethanol) | solubility ([3]; organic solvent or mixture, glycerol, read-out: solubility in glycerol) | solubility at 24 h [4]
1 | COc1c2occc2cc2ccc(=O)oc12 [Lot 8-MOP] | Edema and erythema | – | – | – | – | – | – | – | – | – | – | – | – | –
2 | Oc1ccc(O)cc1 [Hydroquinone, hydroquinone] | – | 1.09 | – | – | – | – | – | – | – | – | – | – | – | –
3 | CO[C@@H]1[C@H](N(C)C(=O)c2ccccc2)C[C@H]2O[C@]1(C)n1c3ccccc3c3c4c(c5c6ccccc6n2c5c31)C(=O)NC4 [Midostaurin, midostaurin] | – | 5.27 | 0.07% | 0.11% | 0.12% | 99.64% | 0.06% | < 10000 µg/mL | < 10000 µg/mL | > 50000 µg/mL | > 50000 µg/mL | < 10000 µg/mL | < 10000 µg/mL | < 10000 µg/mL
